In patent EP4741392A1, “1H-PYRAZOLO[4,3-C]PYRIDINE COMPOUND, AND COMPOSITION THEREOF AND USE THEREOF” (Shenzhen TargetRx Co., Ltd., priority 2023, dated 2025):
pIC50: −log10 of the molar value.

Assays:
[1] = system: NIH/3T3 BTK WT cells; assay: Phosphor-BTK(Y223) assay, adherent cells; format: cell-based; conditions: Mus musculus, NIH3T3, phosphorylated BTK Y223, NIH/3T3 BTK WT cells; read-out: NIH/3T3 BTK-WT pBTK
How it was run: (§1)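 NIH/3T3 cells expressing WT or C481S BTK were pretreated with compound for 0.5 h at 37 °C, then stimulated with 1 mM Na3VO4 (final) for 2 h. Lysates were assayed by HTRF for p-BTK Y223 using the 665/620 nm ratio. IC50 was obtained by nonlinear fit of % inhibition versus 0.5% DMSO control.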

[2] = system: NIH/3T3 BTK C481S cells; assay: Phosphor-BTK(Y223) assay, adherent cells; format: cell-based; conditions: Mus musculus, NIH3T3, phosphorylated BTK Y223, NIH/3T3 BTK C481S cells; read-out: NIH/3T3 BTK-C481S pBTK
How it was run: as §1

[3] = biological target: T1, BTK C481S (Homo sapiens, UniProt Q06187, C481S); assay: Kinase activity inhibition assay (HTRF TK Kit); format: biochemical
T1 construct: purchased Carna 08-547
From the text: (§2) In this assay, the HTRF TK Kit (Catalog No. 62TK0PEC) provided by Cisbio was used to detect the inhibitory activity of compounds on BTK kinase, BTK T474I kinase and BTK C481 S kinase and the selectivity of compounds relative to EGFR, ITK and TEC kinases.
(§3) Reagents and consumables: BTK kinase (Invitrogen, Catalog No. PV3587), BTK C481S (Carna, Product No. 08-547), BTK T474I(SignalChem Product No. B10-12HH), ITK (Cama, Product No. 08-181), EGFR (Cama, Product No. 08-115), TEC (Carna, Product No. 08-182), HTRF-TK kit (Cisbio, Product No. 62TK0PEC), MgCl2 (Sigma, Product No. M1028), MnCl2 (Sigma, Product No. M1787), DTT (Sigma, Product No. D0632), ATP (Sigma, Product No. A7699-1g), DMSO (Sigma, Product No. D2650), 384-well plate (PE, Product No. 6008280).
(§4) The entire operation steps were carried out on ice, and the total reaction volume was 10µL. A compound (4µL), substrate and ATP (4µL), and kinase (2µL) were added in sequence to a 384-well plate, and the plate was shaken for 30 seconds. The mixture was reacted at room temperature for an appropriate time, and then the detection reagent was added. The resulting mixture was reacted at room temperature for 1 hour, and then the plate was assayed with a microplate reader. The specific steps were as follows: • a) a 1 × kinase buffer solution required for the kinase assay was calculated according to the amount of the test compound, and prepared as needed; • b) 2.5 × working concentration of a compound was prepared, 100-fold gradient concentration solutions of a compound were diluted by 40 × to the desired concentration, respectively, mixed well, and added to each well at 4 µL per well; • c) 5 × working concentration of the substrate and ATP were prepared, mixed in a ratio of 1:1 before being added to the 384-well plate, and added to each well at 4 µL per well; • d) 5 × working concentration of a kinase was prepared, 2 µL of which was added to each well; • e) the plate was shaken on a microplate shaker for 30 seconds, sealed with a sealing membrane, and the mixture was reacted at room temperature for an appropriate time; • f) 4 × working concentration of streptavidin XL-665 and TK antibody-cryptate compound were prepared, mixed in a ratio of 1:1 before being added to the 384-well plate, and added to each well at 10 µL per well; • g) the mixture was reacted at room temperature for 1 hour, and then the plate was read; • h) the wells with only substrate, ATP and 1% DMSO added but no kinase were blank control wells, and the wells with only substrate, ATP, 1% DMSO and kinase were positive control wells.
(§5) Readings: The values of 620 nm (cryptate) and 665 nm (XL665) were read with a BioTek Synerg Neo2 microplate reader, the ratio of 665/620 for each well was calculated, and the data were exported.
(§6) Data analysis: IC50 was calculated using GraphPad Prism 7.0 software.
(§7) The IC50 (half-maximal inhibitory concentration) of the compound was obtained using the following nonlinear fitting formula: Y = Bottom + (Top−Bottom)/(1+10^(∧)((LogIC50−X)*HillSlope)) [formula] • X: Log value of the compound concentration • Y: Inhibition rate (% inhibition) • Top: Maximum response • Bottom: Baseline response • HillSlope: Slope of the curve
(§8) The formula for calculating kinase inhibition rate (inhibition rate %) was: [formula]

[4] = biological target: T2, BTK T474I (Homo sapiens, UniProt Q06187, T474I); assay: Kinase activity inhibition assay (HTRF TK Kit); format: biochemical
T2 construct: purchased SignalChem B10-12HH
From the text: as §2, §3, §4, §5, §6, §7, §8

[5] = biological target: T3, BTK kinase (Homo sapiens, UniProt Q06187); assay: Kinase activity inhibition assay (HTRF TK Kit); format: biochemical
T3 construct: purchased Invitrogen PV3587
From the text: as §2, §3, §4, §5, §6, §7, §8

T3 sequence (Q06187 whole entry): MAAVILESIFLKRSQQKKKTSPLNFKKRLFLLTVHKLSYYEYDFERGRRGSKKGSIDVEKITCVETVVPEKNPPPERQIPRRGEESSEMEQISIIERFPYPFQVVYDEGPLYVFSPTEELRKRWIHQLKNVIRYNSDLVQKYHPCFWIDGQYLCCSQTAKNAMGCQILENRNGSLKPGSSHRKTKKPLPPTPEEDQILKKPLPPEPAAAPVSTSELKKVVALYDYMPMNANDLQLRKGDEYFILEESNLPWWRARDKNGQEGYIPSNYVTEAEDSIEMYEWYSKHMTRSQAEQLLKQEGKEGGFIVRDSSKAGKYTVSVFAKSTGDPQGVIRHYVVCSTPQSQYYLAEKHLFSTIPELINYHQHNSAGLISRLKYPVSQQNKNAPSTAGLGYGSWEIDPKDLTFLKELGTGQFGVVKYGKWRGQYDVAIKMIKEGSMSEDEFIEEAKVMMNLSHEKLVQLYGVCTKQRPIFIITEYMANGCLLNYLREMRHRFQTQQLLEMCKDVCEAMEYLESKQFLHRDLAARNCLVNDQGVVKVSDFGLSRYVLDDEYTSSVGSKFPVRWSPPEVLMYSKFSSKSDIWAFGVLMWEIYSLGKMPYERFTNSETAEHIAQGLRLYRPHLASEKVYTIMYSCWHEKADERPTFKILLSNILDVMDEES
T1 sequence (Q06187 whole entry C481S): as the sequence (Q06187 whole entry) above, with C481S counted along it
T2 sequence (Q06187 whole entry T474I): as the sequence (Q06187 whole entry) above, with T474I counted along it

Row | pIC50 [3] | pIC50 [4] | pIC50 [5] | Structure (SMILES) | pIC50 [1] | pIC50 [2]
1 | 8.30 to 9.00 | < 6.30 | 8.30 to 9.00 | COc1ccc(F)cc1C(=O)NCc1ccc(-c2ncc(-c3ncc(C(F)(F)F)cn3)c3[nH]nc(N)c23)cc1 [Example 42, N-(4-(3-amino-7-(5-(trifluoromethyl)pyrimidin-2-yl)-1H-pyrazolo[4,3-c]pyridin-4-yl)benzyl)-5-fluoro-2-methoxybenzamide] | ≥ 8.30 | 7.30 to 8.00
2 | ≥ 9.00 | 7.30 to 8.30 | ≥ 9.00 | COc1ccc(F)cc1C(=O)NCc1ccc(-c2ncc(-c3ccc(C4COC4)cn3)c3[nH]nc(N)c23)cc1 [Example 43, N-(4-(3-amino-7-(5-(oxetan-3-yl)pyridin-2-yl)-1H-pyrazolo[4,3-c]pyridin-4-yl)benzyl)-5-fluoro-2-methoxybenzamide] | ≥ 8.30 | ≥ 8.30
3 | ≥ 9.00 | 7.30 to 8.30 | ≥ 9.00 | COc1ccc(F)cc1C(=O)NCc1ccc(-c2ncc(-c3cc4ncccn4n3)c3[nH]nc(N)c23)cc1 [Example 44, N-(4-(3-amino-7-(pyrazolo[1,5-a]pyrimidin-2-yl)-1H-pyrazolo[4,3-c]pyridin-4-yl)benzyl)-5-fluoro-2-methoxybenzamide] | ≥ 8.30 | ≥ 8.30
4 | 7.30 to 8.30 | < 6.30 | 7.30 to 8.30 | CCOC(=O)c1cnc2cc(-c3cnc(-c4ccc(CNC(=O)c5cc(F)ccc5OC)cc4)c4c(N)n[nH]c34)nn2c1 [Example 45, ethyl 2-(3-amino-4-(4-((5-fluoro-2-methoxybenzoylamino)methyl)phenyl)-1H-pyrazolo[4,3-c]pyridin-7-yl)pyrazolo[1,5-a]pyrimidine-6-carboxylate] | 7.30 to 8.00 | 7.30 to 8.00
5 | 8.30 to 9.00 | 6.30 to 7.30 | 8.30 to 9.00 | COc1ccc(F)cc1C(=O)NCc1ccc(-c2ncc(-c3ccn4nccc4n3)c3[nH]nc(N)c23)cc1 [Example 46, N-(4-(3-amino-7-(pyrazolo[1,5-a]pyrimidin-5-yl)-1H-pyrazolo[4,3-c]pyridin-4-yl)benzyl)-5-fluoro-2-methoxybenzamide] | ≥ 8.30 | 8.00 to 8.30
6 | 8.30 to 9.00 | 6.30 to 7.30 | 8.30 to 9.00 | COc1ccc(F)cc1C(=O)NCc1ccc(-c2ncc(-c3ccc4cn[nH]c4n3)c3[nH]nc(N)c23)cc1 [Example 47, N-(4-(3-amino-7-(1H-pyrazolo[3,4-b]pyridin-6-yl)-1H-pyrazolo[4,3-c]pyridin-4-yl)benzyl)-5-fluoro-2-methoxybenzamide] | 8.00 to 8.30 | 7.30 to 8.00
7 | 8.30 to 9.00 | 7.30 to 8.30 | 8.30 to 9.00 | COc1ccc(F)cc1C(=O)NCc1ccc(-c2ncc(-c3ccc(C(F)F)cn3)c3[nH]nc(N)c23)cc1 [Example 48, N-(4-(3-amino-7-(5-(difluoromethyl)pyridin-2-yl)-1H-pyrazolo[4,3-c]pyridin-4-yl)benzyl)-5-fluoro-2-methoxybenzamide] | ≥ 8.30 | ≥ 8.30
8 | 8.30 to 9.00 | 6.30 to 7.30 | 8.30 to 9.00 | COc1ccc(F)cc1C(=O)NCc1ccc(-c2ncc(-c3cn4ccnc4cn3)c3[nH]nc(N)c23)cc1 [Example 50, N-(4-(3-amino-7-(imidazo[1,2-a]pyrazin-6-yl)-1H-pyrazolo[4,3-c]pyridin-4-yl)benzyl)-5-fluoro-2-methoxybenzamide] | ≥ 8.30 | 8.00 to 8.30
9 | ≥ 9.00 | 6.30 to 7.30 | 8.30 to 9.00 | COc1ccc(F)cc1C(=O)NCc1ccc(-c2ncc(-c3ccc4nccn4n3)c3[nH]nc(N)c23)cc1 [Example 51, N-(4-(3-amino-7-(imidazo[1,2-b]pyridazin-6-yl)-1H-pyrazolo[4,3-c]pyridin-4-yl)benzyl)-5-fluoro-2-methoxybenzamide] | ≥ 8.30 | 8.00 to 8.30
10 | ≥ 9.00 | 7.30 to 8.30 | ≥ 9.00 | COc1ccc(F)cc1C(=O)NCc1ccc(-c2ncc(-c3ccc(C(=O)N4CCOCC4)cn3)c3[nH]nc(N)c23)cc1 [Example 52, N-(4-(3-amino-7-(5-(morpholine-4-carbonyl)pyridin-2-yl)-1H-pyrazolo[4,3-c]pyridin-4-yl)benzyl)-5-fluoro-2-methoxybenzamide] | ≥ 8.30 | ≥ 8.30
11 | 8.30 to 9.00 | 6.30 to 7.30 | 8.30 to 9.00 | COc1ccc(F)cc1C(=O)NCc1ccc(-c2ncc(-c3ccc(C(=O)N4C[C@H](C)O[C@@H](C)C4)cn3)c3[nH]nc(N)c23)cc1 [Example 53, N-(4-(3-amino-7-(5-((2S,6S)-2,6-dimethylmorpholine-4-carbonyl)pyridin-2-yl)-1H-pyrazolo[4,3-c]pyridin-4-yl)benzyl)-5-fluoro-2-methoxybenzamide] | ≥ 8.30 | ≥ 8.30
12 | 8.30 to 9.00 | 6.30 to 7.30 | 8.30 to 9.00 | COc1ccc(F)cc1C(=O)NCc1ccc(-c2ncc(-c3ccc(C(=O)N4C[C@@H](C)O[C@H](C)C4)cn3)c3[nH]nc(N)c23)cc1 [Example 54, N-(4-(3-amino-7-(5-((2R,6R)-2,6-dimethylmoroholine-4-carbonyl)pyridin-2-yl)-1H-pyrazolo[4,3-c]pyridin-4-yl)benzyl)-5-fluoro-2-methoxybenzamide] | ≥ 8.30 | ≥ 8.30
13 | 8.30 to 9.00 | 7.30 to 8.30 | 8.30 to 9.00 | COc1ccc(F)cc1C(=O)NCc1ccc(-c2ncc(-c3ccc(P(C)(C)=O)cn3)c3[nH]nc(N)c23)cc1 [Example 56, N-(4-(3-amino-7-(5-(dimethylphosphoryl)pyridin-2-yl)-1H-pyrazolo[4,3-c]pyridin-4-yl)benzyl)-5-fluoro-2-methoxybenzamide] | < 7.30 | < 7.30
14 | ≥ 9.00 | 6.30 to 7.30 | 8.30 to 9.00 | COc1ccc(F)cc1C(=O)NCc1ccc(-c2ncc(-c3nc4cnccn4n3)c3[nH]nc(N)c23)cc1 [Example 57, N-(4-(7-([1,2,4]triazolo[1,5-a]pyrazin-2-yl)-3-amino-1H-pyrazolo[4,3-c]pyridin-4-yl)benzyl)-5-fluoro-2-methoxybenzamide] | ≥ 8.30 | 8.00 to 8.30
15 | 8.30 to 9.00 | 7.30 to 8.30 | 8.30 to 9.00 | COc1ccc(F)cc1C(=O)NCc1ccc(-c2ncc(-c3nc4ccccn4n3)c3[nH]nc(N)c23)cc1 [Example 58, N-(4-(7-([1,2,4]triazolo[1,5-a]pyridin-2-yl)-3-amino-1H-pyrazolo[4,3-c]pyridin-4-yl)benzyl)-5-fluoro-2-methoxybenzamide] | ≥ 8.30 | ≥ 8.30
16 | ≥ 9.00 | 7.30 to 8.30 | ≥ 9.00 | COCCOc1ccc(-c2cnc(-c3ccc(CNC(=O)c4cc(F)ccc4OC)cc3)c3c(N)n[nH]c23)nc1 [Example 59, N-(4-(3-amino-7-(5-(2-methoxyethoxy)pyridin-2-yl)-1H-pyrazolo[4,3-c]pyridin-4-yl)benzyl)-5-fluoro-2-methoxybenzamide] | ≥ 8.30 | ≥ 8.30
